Results taken from US10766882B2, “1,2-naphthoquinone based derivative and method of preparing the same” (YUNGJIN PHARM. CO., LTD., priority 2013, dated 2020).

Key:
C57BL/6J Lep ob/ob mice = assay: Weight loss effects in obese mice (ob/ob); format: in vivo; conditions: one week, vs 0.1% SLS controls
Experimental: 10 week-old C57BL/6J Lep ob/ob mice having genetic obesity characteristics available from ORIENTBIO were prepared. Two mice were raised in each polycarbonate breeding cage (200 W×260 L×130H (mm), Three-shine) in which temperature was 20 to 24° C., relative humidity was 35 to 65%, illuminance was 150 to 300 lux, night and day were 12 hours, and exhaust was performed at 10 to 15 air changes per hour. As a feed, low fat diet (11.9 kcal % fat, 5053, Labdiet) manufactured by ORIENTBIO was used. The feed was contained in a feeder and free intake was allowed. As drinking water, water, which was contained in a 250 mL polycarbonate based bottle, purified through a filter and a sterilizer was used and free intake was allowed.
The compound according to Example 1 synthesized in the present invention was orally administered to three C57BL/6J Lep ob/ob mice in amounts of 40 mg/kg, 80 mg/kg, and 120 mg/kg, respectively, once every day for two weeks. For administration, a disposable syringe fitted with a sonde for oral administration was used and 10 ml/kg of the compound was orally administered into the stomach. As controls, three C57BL/6J Lep ob/ob mice were administered 0.1% sodium lauryl sulfate (SLS) in an amount of 120 mg/kg in the same manner as described above. After administration, a time-dependent weight increase ratio, weight change, and intake amount were measured and results are illustrated in FIG. 1 below.
Weights of the experimental animals were measured immediately before administration of a test material and seven times a week from an administration initiation day to a test termination day. Increased total weights were calculated by subtracting weights measured on an experiment initiation day from weights measured one day before an experiment termination day. Food intake amounts were calculated by measuring feed supply amounts and remaining amounts twice a week from an initiation day of test material administration to a test termination day for each individual. […]
(§1) Experiments were performed under the same conditions as in Experimental Example 3-1 except that 15 week-old C57BL/6J Lep ob/ob mice having genetic obesity characteristics available from ORIENTBIO were prepared, the compounds according to Examples 5 and 6 were administered to three C57BL/6J Lep ob/ob mice in an amount of 150 mg/kg, 150 mg/kg of 0.1% SLS was administered to each of three C57BL/6J Lep ob/ob mice as controls, and experiments were performed for a total of one week. Weight increase ratios, weight change, and intake amounts depending on administration time were measured and results are illustrated in FIG. 5 below.
as §1, with “that 10” for “that 15”, “Examples 8, 9,” for “Examples 5”, “and 12” for “and 6”, “FIG. 6” for “FIG. 5”
Experiments were performed under the same conditions as in Experimental Example 3-1 except that 6 week-old C57BL/6J Lep ob/ob mice having genetic obesity characteristics available from ORIENTBIO were prepared, the compounds according to Examples 17, 18, 22, and 23 were administered to three C57BL/6J Lep ob/ob mice in an amount of 100 mg/kg, 100 mg/kg of 0.1% SLS was administered to each of three C57BL/6J Lep ob/ob mice as controls, and experiments were performed for a total of one week. Weight increase ratios, weight change, and intake amounts depending on administration time were measured and results are illustrated in FIG. 10 below. […]

Cells = assay: Measurement of lactate change amount within cells; format: cell-based; conditions: PCA extract of cells, lactate measured from supernatant (Megazyme, K-LATE)
Procedure, shortened: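 Cells were extracted in 6% perchloric acid and centrifuged (13,000 rpm, 10 min), and the dried pellet was weighed. The supernatant was neutralised with 1 M KOH, brought up in 0.33 M potassium phosphate pH 7.5 and re-centrifuged. Lactate was measured in this supernatant with a commercial lactate kit.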

NQO1 protein = NQO1 protein (Homo sapiens, UniProt P15559); assay: NQO1 activity measurement (cytochrome C reduction); format: biochemical; conditions: 5 ng NQO1 protein, 200 μM NADH, 77 μM cytochrome C, 37° C., absorbance 550 nm for 10 minutes
NQO1 protein, sequence (P15559 whole entry, species assumed): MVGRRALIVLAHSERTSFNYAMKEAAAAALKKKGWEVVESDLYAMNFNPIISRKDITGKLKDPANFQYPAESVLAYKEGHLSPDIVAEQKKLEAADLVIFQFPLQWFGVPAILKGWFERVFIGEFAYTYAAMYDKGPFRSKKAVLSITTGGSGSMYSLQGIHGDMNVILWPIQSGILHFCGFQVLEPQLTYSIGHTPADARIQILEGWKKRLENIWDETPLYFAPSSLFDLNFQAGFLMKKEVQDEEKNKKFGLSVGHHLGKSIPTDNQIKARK

[1] = Exp. Ex. 3-7, FIG. 10: 6 week-old ob/ob mice, 100 mg/kg oral
[2] = Exp. Ex. 3-4, FIG. 4: 12 week-old ob/ob mice, 150 mg/kg oral
[3] = Exp. Ex. 3-6, FIG. 6: 10 week-old ob/ob mice, 150 mg/kg oral

Q: What does the source list for `CC(C)c1nc2c([nH]1)C(=O)C(=O)c1cc(N(C)C)ccc1-2` [Example 23]?
A: intake amount (C57BL/6J Lep ob/ob mice; [1]): significantly decreased in some sections; weight change (C57BL/6J Lep ob/ob mice; [1]): significantly decreased in some sections; weight increase ratio (C57BL/6J Lep ob/ob mice; [1]): significantly decreased in some sections; Lactate change amount within cells (nmol/mg cell) (Cells): 5.6 nmol/mg cell; NQO1 activity (5 μM, [nmol cytochrome C reduced/min/μg protein]) (NQO1 protein): 78.4 nmol cytochrome C reduced/min/μg protein

Q: `O=C1C(=O)c2[nH]c(-c3ccccc3)nc2-c2ccccc21` [Example 4, 2-phenyl-3H-naphtho[2,1-d]imidazole-4,5-dione] was tested. Which weight change (C57BL/6J Lep ob/ob mice; [2]) did it give?
A: significantly decreased

Q: And the weight increase ratio (C57BL/6J Lep ob/ob mice; [2])?
A: significantly decreased

Q: And the “Lactate change amount within cells (nmol/mg cell)” value (shortened to “Lactate change amount within cells”) (Cells)?
A: 9.1 nmol/mg cell

Q: And the “NQO1 activity (5 μM, [nmol cytochrome C reduced/min/μg protein])” value (NQO1 protein)?
A: 122 nmol cytochrome C reduced/min/μg protein

Q: Which intake amount (C57BL/6J Lep ob/ob mice; [1]) does the source give for `CC(C)c1nc2c([nH]1)C(=O)C(=O)c1cc(Cl)ccc1-2` [Example 17] here?
A: significantly decreased in some sections

Q: And the weight change (C57BL/6J Lep ob/ob mice; [1])?
A: significantly decreased in some sections

Q: And the weight increase ratio (C57BL/6J Lep ob/ob mice; [1])?
A: significantly decreased in some sections

Q: What about the “Lactate change amount within cells” value (Cells) of the same compound?
A: 6.0 nmol/mg cell

Q: And the “NQO1 activity (5 μM, [nmol cytochrome C reduced/min/μg protein])” value (NQO1 protein)?
A: 206.9 nmol cytochrome C reduced/min/μg protein

Q: For `CC(C)Cc1nc2c([nH]1)C(=O)C(=O)c1ccccc1-2` [Example 8], which intake amount (C57BL/6J Lep ob/ob mice; [3]) is on record?
A: significantly decreased

Q: What about the weight change (C57BL/6J Lep ob/ob mice; [3]) of the same compound?
A: significantly decreased

Q: And the weight increase ratio (C57BL/6J Lep ob/ob mice; [3])?
A: significantly decreased

Q: What about the “Lactate change amount within cells” value (Cells) of the same compound?
A: 10.0 nmol/mg cell

Q: What about the “NQO1 activity (5 μM, [nmol cytochrome C reduced/min/μg protein])” value (NQO1 protein) of the same compound?
A: 213 nmol cytochrome C reduced/min/μg protein

Q: How did the intake amount (C57BL/6J Lep ob/ob mice; [1]) turn out when `CC(C)c1nc2c([nH]1)C(=O)C(=O)c1cc(F)ccc1-2` [Example 22] was run?
A: significantly decreased in some sections

Q: What about the weight change (C57BL/6J Lep ob/ob mice; [1]) of the same compound?
A: significantly decreased in some sections

Q: And the weight increase ratio (C57BL/6J Lep ob/ob mice; [1])?
A: significantly decreased in some sections

Q: And the “Lactate change amount within cells” value (Cells)?
A: 7.3 nmol/mg cell

Q: And the “NQO1 activity (5 μM, [nmol cytochrome C reduced/min/μg protein])” value (NQO1 protein)?
A: 206.1 nmol cytochrome C reduced/min/μg protein
